Experimental data as given in US8680052B1, “Methods of treating, reducing the incidence of, and/or preventing ischemic events” (The Medicines Company, priority 2013, dated 2014).
Where two headings read alike, the source gives them in different places.

Experiments:
[1] = system: patients undergoing percutaneous coronary intervention (PCI); conditions: for Mortality/Q-wave MI/Stent thrombosis / Mortality/Q-wave MI/IDR: exploratory; for Angiographic complications (site reported): Abrupt vessel closure / Angiographic complications (site reported): Acute stent thrombosis / Angiographic complications (site reported): Need for urgent CABG / Angiographic complications (site reported): New thrombus or suspected thrombus / Angiographic complications (site reported): Threatened abrupt closure / Angiographic complications (site reported): Unsuccessful procedure: index PCI
Experimental: The diagnosis of non-ST-segment elevation myocardial infarction required troponin I or T greater than the upper limit of normal within 24 hours of randomization (or if troponin results were unavailable at that time, creatine kinase-myocardial band isoenzyme [CK-MB] greater than the upper limit of normal). The diagnosis of unstable angina required ischemic chest discomfort occurring at rest and lasting ≧10 minutes within the 24 hours prior to randomization and dynamic electrocardiographic changes; age ≧65 years and/or diabetes mellitus were also required.
The primary efficacy endpoint was the composite of mortality, myocardial infarction, or ischemia-driven revascularization at 48 hours. The primary analysis was performed on a modified intent-to-treat population. Confirmatory analyses were performed on an intent-to-treat population. Secondary endpoints included the individual rates of mortality, myocardial infarction, new Q-wave myocardial infarction, ischemia-driven revascularization, abrupt vessel closure, or stroke at 48 hours. Mortality at 30 days and 1 year was also recorded. The clinical events committee adjudicated myocardial infarction, Q-wave myocardial infarction, ischemia-driven revascularization, stent thromboses, and stroke (ischemic or hemorrhagic). The definition of stent thrombosis was similar to the Academic Research Consortium definition of definite stent thrombosis. After review of the prespecified analyses, two exploratory endpoints less reliant on periprocedural biomarker ascertainment were examined. The exploratory endpoints, which were composed of prespecified and adjudicated endpoints, were the composite of mortality, Q-wave myocardial infarction, or ischemia-driven revascularization and the composite of mortality, Q-wave myocardial infarction, or stent thrombosis. Bleeding and adverse events through 48 hours were compared.
All efficacy analyses were performed on the modified intent-to-treat population, defined as all randomized patients who received at least one dose of study drug and underwent the index PCI. All safety-related analyses were performed on the safety population, which included all patients who received at least one dose of assigned study drug. Patients in the safety analyses were assigned to a treatment arm based on treatment actually received, not as randomized. Intent-to-treat analyses are also presented for full disclosure of results. All statistical tests were two-tailed using a level of significance of 0.05. […] Logistic regression was also used to analyze the majority of the remaining secondary endpoints.

[2] = biological target: T1, P2Y12 receptor (Homo sapiens, UniProt Q9H244); assay: Example 2 substudy: platelet function by VerifyNow P2Y12 Assay; format: in vivo
T1 construct: from tissue; host or cells: platelets in whole blood of patients
T1 sequence (Q9H244 whole entry): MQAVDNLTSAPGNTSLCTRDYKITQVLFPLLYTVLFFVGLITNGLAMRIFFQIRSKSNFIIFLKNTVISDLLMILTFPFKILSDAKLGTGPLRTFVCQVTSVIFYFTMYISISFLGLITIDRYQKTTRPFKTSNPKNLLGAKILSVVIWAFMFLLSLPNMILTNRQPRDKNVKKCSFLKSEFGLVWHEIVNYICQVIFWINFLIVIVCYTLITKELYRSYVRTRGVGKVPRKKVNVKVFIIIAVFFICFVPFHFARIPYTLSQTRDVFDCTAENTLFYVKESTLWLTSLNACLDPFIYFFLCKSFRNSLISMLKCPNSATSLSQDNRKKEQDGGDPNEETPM
Experimental: Platelet function parameters were measured using the VerifyNow® P2Y12 Assay (Accumetrics, San Diego, Calif.). Samples were taken before study drug administration, at approximately 2 hours (during cangrelor/placebo infusion), and 10 hours or next day following randomization.

[3] = 48-hour, MITT, cangrelor vs comparator arm
[4] = 48-hour, MITT, cangrelor vs comparator arm, listed as cangrelor
[5] = 48-hour, Safety population, cangrelor vs comparator arm

CSCCNc1nc(SCCC(F)(F)F)nc2c1ncn2[C@@H]1O[C@H](COP(=O)(O)OP(=O)(O)C(Cl)(Cl)P(=O)(O)O)[C@@H](O)[C@H]1O [Cangrelor, cangrelor]
Mortality/Q-wave MI/Stent thrombosis ([1]; 48-hour, ITT): 15 (0.6) no. (%) | All-cause mortality ([1]; 48-hour, MITT): 6 (0.2) no. (%) | IDR ([1]; 48-hour, MITT): 19 (0.7) no. (%) | MI ([1]; 48-hour, MITT): 177 (6.7) no. (%) | Mortality/MI/IDR (primary endpoint) ([1]; 48-hour, MITT): 185 (7.0) no. (%) | Q-wave MI ([1]; 48-hour, MITT): 4 (0.2) no. (%) | Stent thrombosis ([1]; 48-hour, MITT): 5 (0.2) no. (%) | Stroke ([1]; 48-hour, MITT): 7 (0.3) no. (%) | OR (95% CI): All-cause mortality [1, 3]: 0.330 (0.131, 0.833) | OR (95% CI): IDR [1, 3]: 0.786 (0.430, 1.439) | OR (95% CI): MI [1, 3]: 0.917 (0.742, 1.133) | OR (95% CI): Mortality/MI/IDR (primary endpoint) [1, 3]: 0.867 (0.706, 1.065) | OR (95% CI): Mortality/Q-wave MI/IDR [1, 3]: 0.554 (0.332, 0.926) | OR (95% CI): Mortality/Q-wave MI/Stent thrombosis [1, 3]: 0.377 (0.199, 0.717) | OR (95% CI): Q-wave MI [1, 3]: 0.497 (0.149, 1.652) | OR (95% CI): Stent thrombosis [1, 3]: 0.310 (0.113, 0.847) | OR (95% CI): Stroke [1, 3]: 1.394 (0.442, 4.398) | OR (95% CI): All-cause mortality [1, 4]: 0.33 | OR (95% CI): Mortality/MI/IDR (primary endpoint) [1, 4]: 0.87 | OR (95% CI): Stent thrombosis [1, 4]: 0.31 | Mortality/Q-wave MI/IDR ([1]; 48-hour, MITT): 23 (0.9) no. (%) | Mortality/Q-wave MI/Stent thrombosis ([1]; 48-hour, MITT): 13 (0.5) no. (%) | OR (95% CI): All-cause mortality [1, 5]: 0.385 (0.161, 0.924) | OR (95% CI): IDR [1, 5]: 0.754 (0.414, 1.373) | OR (95% CI): MI [1, 5]: 0.901 (0.729, 1.113) | OR (95% CI): Mortality/MI/IDR [1, 5]: 0.858 (0.699, 1.053) | OR (95% CI): Mortality/Q-wave MI/IDR [1, 5]: 0.564 (0.341, 0.935) | OR (95% CI): Mortality/Q-wave MI/Stent thrombosis [1, 5]: 0.395 (0.212, 0.735) | OR (95% CI): Q-wave MI [1, 5]: 0.441 (0.136, 1.435) | OR (95% CI): Stent thrombosis [1, 5]: 0.310 (0.113, 0.846) | OR (95% CI): Stroke [1, 5]: 1.394 (0.442, 4.396) | Mortality/Q-wave MI/IDR ([1]; 48-hour, Safety population): 24 (0.9) no. (%) | Mortality/Q-wave MI/Stent thrombosis ([1]; 48-hour, Safety population): 14 (0.5) no. (%) | All-cause mortality ([1]; 48-hour, safety population): 7 (0.3) no. (%) | IDR ([1]; 48-hour, safety population): 19 (0.7) no. (%) | MI ([1]; 48-hour, safety population): 176 (6.6) no. (%) | Mortality/MI/IDR ([1]; 48-hour, safety population): 185 (7.0) no. (%) | Q-wave MI ([1]; 48-hour, safety population): 4 (0.2) no. (%) | Stent thrombosis ([1]; 48-hour, safety population): 5 (0.2) no. (%) | Stroke ([1]; 48-hour, safety population): 7 (0.3) no. (%) | Rates of stent thrombosis ([1]; 48 hours): 0.2% | rate of mortality at 48 hours ([1]; 48 hours): 0.2% | primary endpoint (mortality, myocardial infarction, or ischemia-driven revascularization), patients with event ([1]; 48 hours, MITT): 7.0% | Angiographic complications (site reported): Abrupt vessel closure ([1]; ITT): 13 (0.5) | Angiographic complications (site reported): Acute stent thrombosis ([1]; ITT): 1 (0.0) | Angiographic complications (site reported): Need for urgent CABG ([1]; ITT): 5 (0.2) | Angiographic complications (site reported): New thrombus or suspected thrombus ([1]; ITT): 14 (0.5) | Angiographic complications (site reported): Threatened abrupt closure ([1]; ITT): 10 (0.4) | Angiographic complications (site reported): Unsuccessful procedure ([1]; ITT): 84 (3.1) | Angiographic complications (site reported): Abrupt vessel closure ([1]; MITT): 13 (0.5) | Angiographic complications (site reported): Acute stent thrombosis ([1]; MITT): 1 (0.0) | Angiographic complications (site reported): Need for urgent CABG ([1]; MITT): 5 (0.2) | Angiographic complications (site reported): New thrombus or suspected thrombus ([1]; MITT): 14 (0.5) | Angiographic complications (site reported): Threatened abrupt closure ([1]; MITT): 10 (0.4) | Angiographic complications (site reported): Unsuccessful procedure ([1]; MITT): 81 (3.1) | Angiographic complications (site reported): Abrupt vessel closure ([1]; Safety population): 13 (0.5) | Angiographic complications (site reported): Acute stent thrombosis ([1]; Safety population): 1 (0.0) | Angiographic complications (site reported): Need for urgent CABG ([1]; Safety population): 5 (0.2) | Angiographic complications (site reported): New thrombus or suspected thrombus ([1]; Safety population): 14 (0.5) | Angiographic complications (site reported): Threatened abrupt closure ([1]; Safety population): 10 (0.4) | Angiographic complications (site reported): Unsuccessful procedure ([1]; Safety population): 81 (3.1) | primary efficacy endpoint ([1]; subgroup of 1659 patients without baseline troponin elevation): 4.6% | OR, primary efficacy endpoint ([1]; subgroup of 1659 patients without baseline troponin elevation, cangrelor vs placebo): 0.62 | median PRU (VerifyNow P2Y12 assay) ([2]; 12-24 hours after discontinuation of the cangrelor infusion): 228 PRU | median PRU (VerifyNow P2Y12 assay) ([2]; during the study drug infusion (approx. 2 hours)): 93.5 PRU
